Assay results from US7138418B2, “Pentafluorobenzenesulfonamides and analogs” (Amgen, Inc., priority 1996, dated 2006).

tested on: not given; experiment: not given; details: not given

melting point [°C]	SMILES
88 to 90	COc1ccc(N(CCCCO)S(=O)(=O)c2c(F)c(F)c(F)c(F)c2F)cc1 [Example 56, 1-(N-(4-hydroxybutyl)pentafluorophenylsulfonamido)-4-methoxybenzene]
64 to 66	C=CCCN(c1ccc(OC)cc1)S(=O)(=O)c1c(F)c(F)c(F)c(F)c1F [Example 51, 1-(N-(3-Butenyl)pentafluorophenylsulfonamido)-4-methoxybenzene]
102 to 103	COc1ccc(NS(=O)(=O)c2c(F)c(F)c(F)c(F)c2F)cc1 [Example 8, 4-Methoxy-1-pentafluorophenylsulfonamidobenzene]
130 to 131	COc1ccc(N(CC(O)CO)S(=O)(=O)c2c(F)c(F)c(F)c(F)c2F)cc1 (centres unmarked) [Example 53, 1-(N-(2,3-Dihydroxypropyl)pentafluorophenylsulfonamido)-4-methoxybenzene]
144 to 145	O=S(=O)(Nc1ccc(Cl)nc1)c1c(F)c(F)c(F)c(F)c1F [Example 36, 2-Chloro-5-pentafluorophenylsulfonamidopyridine]
59 to 60	C=CCN(c1ccc(OC)cc1)S(=O)(=O)c1c(F)c(F)c(F)c(F)c1F [Example 50, 4-Methoxy-1-(N-(2-propenyl)pentafluorophenylsulfonamido)benzene]
126 to 128	COc1ccc(N(CCC(O)CO)S(=O)(=O)c2c(F)c(F)c(F)c(F)c2F)cc1 (centres unmarked) [Example 54, 1-(N-(3,4-Dihydroxybutyl)pentafluorophenylsulfonamido)-4-methoxybenzene]
142 to 143	COc1ccc(NS(=O)(=O)c2c(F)c(F)c(F)c(F)c2F)cc1N [Example 59, 3-Amino-4-methoxy-1-pentafluorophenylsulfonamidobenzene]
121 to 123	COc1ccc(NS(=O)(=O)c2c(F)c(F)c(F)c(F)c2F)cc1C(F)(F)F [Example 49, 4-Methoxy-1-pentafluorophenylsulfonamido-3-trifluoromethylbenzene]
96 to 97	COc1ccc(N(CCCCCO)S(=O)(=O)c2c(F)c(F)c(F)c(F)c2F)cc1 [Example 57, 4-Methoxy-1-(N-(5-hydroxypentyl)pentafluorophenylsulfonamido)benzene]
109	COc1cc(Br)c(NS(=O)(=O)c2c(F)c(F)c(F)c(F)c2F)cc1F [Example 41, 1-Bromo-4-fluoro-5-methoxy-2-pentafluorophenylsulfonamidobenzene]
118	COc1ccc(N(CCCCCO)S(=O)(=O)c2c(F)c(F)c(F)c(F)c2F)cc1O [Example 37, 2-Hydroxy-1-methoxy-4-(N-(5-hydroxypentyl)-pentafluorophenylsulfonamido)benzene]
95 to 97	COc1ccc(NS(=O)(=O)c2c(F)c(F)c(F)c(F)c2F)cc1[N+](=O)[O-] [Example 58, 4-Methoxy-3-nitro-1-pentafluorophenylsulfonamidobenzene]
116 to 118	COc1ccc(N(CCCC(O)CO)S(=O)(=O)c2c(F)c(F)c(F)c(F)c2F)cc1 (centres unmarked) [Example 55, 1-(N-(4,5-Dihydroxypentyl)pentafluorophenylsulfonamido)-4-methoxybenzene]

tested on: LDL receptor expression in Hep G2 cells; experiment: LDL receptor expression in Hep G2 cells by western-blot analysis; assay type: cell-based; details: Homo sapiens, HepG2, minimum concentration at which a maximal induction of LDL receptor was observed
Experimental: Compounds may be evaluated in vitro for their ability to increase LDL receptor expression using western-blot analysis, for example, as described in Tam et al. (1991) J. Biol. Chem. 266, 16764. Established animal models to evaluate hypocholesterolemic effects of compounds are known in the art. […] 81, 300; Evans et al. (1994) J. Lipid Res. 35, 1634; Lin et al (1995) J. Med. Chem. 38, 277.
Compounds were evaluated for their ability to increase LDL receptor expression in Hep G2 cells using western-blot analysis as described in Tam et al., J. Biol. Chem., 266, 16764 (1991).

SMILES	EC (max) [µM]
CCN(CC)c1ccc(NS(=O)(=O)c2c(F)c(F)c(F)c(F)c2F)cc1 [Example 12, 4-(N,N-Diethylamino)-1-pentafluorophenylsulfonamidobenzene]	5
COc1ccc(NS(=O)(=O)c2c(F)c(F)c(F)c(F)c2F)cc1O [Example 6, 2-Hydroxy-1-methoxy-4-pentafluorophenylsulfonamidobenzene]	0.15
O=S(=O)(Nc1ccc2c(c1)OCO2)c1c(F)c(F)c(F)c(F)c1F [Example 4, 1,2-Methylenedioxy-4-pentafluorophenylsulfonamidobenzene]	≤ 5
COc1ccc(NS(=O)(=O)c2c(F)c(F)c(F)c(F)c2F)cc1 [Example 8, 4-Methoxy-1-pentafluorophenylsulfonamidobenzene]	0.5
COc1ccc(NS(=O)(=O)c2c(F)c(F)c(F)c(F)c2F)cc1Cl [Example 32, 2-Chloro-1-methoxy-4-pentafluorophenylsulfonamidobenzene]	1.5
O=S(=O)(Nc1cccc(O)c1)c1c(F)c(F)c(F)c(F)c1F [Example 9, 3-Hydroxy-1-pentafluorophenylsulfonamidobenzene]	5
O=S(=O)(Nc1ccc(N2CCOCC2)cc1)c1c(F)c(F)c(F)c(F)c1F [Example 25, 4-(1-Morpholino)-1-pentafluorophenylsulfonamidobenzene]	15
CN(C)c1cccc(NS(=O)(=O)c2c(F)c(F)c(F)c(F)c2F)c1 [Example 2, 3-(N,N-Dimethylamino)-1-pentafluorophenylsulfonamidobenzene]	5
COc1ccc(N(C)S(=O)(=O)c2c(F)c(F)c(F)c(F)c2F)cc1F [Example 30, 2-Fluoro-1-methoxy-4-(N-methylpentafluorophenylsulfonamido)benzene]	15
O=S(=O)(Nc1ccc2[nH]ncc2c1)c1c(F)c(F)c(F)c(F)c1F [Example 15, 5-Pentafluorophenylsulfonamidoindazole]	15
CN(C)c1ccc(NS(=O)(=O)c2c(F)c(F)c(F)c(F)c2F)cc1 [Example 1, 4-(N,N-Dimethylamino)-1-pentafluorophenylsulfonamidobenzene]	0.5
O=S(=O)(Nc1ccc2c(c1)OCCO2)c1c(F)c(F)c(F)c(F)c1F [Example 3, 1,2-Ethylenedioxy-4-pentafluorophenylsulfonamidobenzene]	5
COc1cccc(NS(=O)(=O)c2c(F)c(F)c(F)c(F)c2F)c1 [Example 24, 3-Methoxy-1-pentafluorophenylsulfonamidobenzene]	15
CN(C)c1ccc(N(C)S(=O)(=O)c2c(F)c(F)c(F)c(F)c2F)cc1 [Example 17, 4-(N,N-Dimethylamino)-1-(N-methylpentafluorophenylsulfonamido)benzene]	5
COc1ccc(NS(=O)(=O)c2c(F)c(F)c(F)c(F)c2F)cc1Br [Example 31, 2-Bromo-1-methoxy-4-pentafluorophenylsulfonamidobenzene]	≤ 5
